PMC10094510, “Novel Cannabinoid Receptor 2 (CB2) Low Lipophilicity Agonists Produce Distinct cAMP and Arrestin Signalling Kinetics without Bias” (International Journal of Molecular Sciences, 2023)
Where two headings read alike, the source gives them in different places.

Experiments:
[1] = target: T1, human CB2 (Homo sapiens, UniProt P34972, Q63R); experiment: Competition radioligand binding assay ([3H]-CP55,940), hCB2 membranes; conditions: for CB2/CB1 Selectivity: CB2 selectivity relative to CB1, from Ki (or Kd); for displacement of [3H]-CP55,940 from CB2: full displacement = ≥ 75% relative to 1 µM CP55,940
T1 construct: HA (N); 3TCS (N); expressed in transfected cells; host or cells: HEK-293S cells, transient transfection (PEI max)
Procedure: (§1) The concentration of DMSO was kept equivalent across all test conditions. All dilutions were dispensed into a 96-well, polypropylene V-bottom plate (Gene Era Biotech, Hangzhou, China). […] All conditions were carried out in technical duplicate. The plate was then sealed, tap-mixed, then incubated at 30 °C for 1 h. A total of 50 µL of 0.1% PEI (Sigma-Aldrich, St. Louis, MI, USA) in MQ water was added to each well of a 96-well GF/C harvest plate (Perkin Elmer) 1 h prior to the harvest. When the incubation finished, vacuum (~5 mmHg) was applied to the harvest plate and wells were washed (50 mM HEPES pH 7.4, 500 mM NaCl, 1 mg/mL BSA, MQ water, ice cold). Subsequently, the contents of the V-bottom plate were transferred to corresponding wells in the harvest plate, wash buffer was used to wash the remaining contents of the V-bottom wells before transferring this to the harvest plate, then the harvest plate was washed an additional three times. The plate was dried for ~24 h at 24 °C. To prepare for reading, the bottom of the plate was sealed, each well received 50 µL of Irgasafe Plus scintillation fluid (Perkin Elmer), followed by sealing the top of the plate. Plates were read in a Wallac MicroBeta® TriLux Liquid Scintillation Counter (Perkin Elmer) with a read time of 2 min/well.
(§2) GraphPad Prism (v8.0.2; GraphPad Software, San Diego, CA, USA) was used to fit nonlinear regression curves (One site—Fit Ki) to the corrected counts per minutes (CCPM) of each displacer to determine their pKi (negative log Ki). […] Mean and SEM of pKi values were calculated from independent experiments. […] CB2 selectivity was calculated as […].

[2] = target: T2, human CB1 (Homo sapiens, UniProt P21554); experiment: Competition radioligand binding assay ([3H]-CP55,940), hCB1 membranes
T2 construct: pplss (N); 3HA (N); expressed in transfected cells
Procedure: as §1, with “Preparation of hCB1- and hCB2-membranes from a HEK pplss-3HA-hCB1 cell line and HEK Flp-in HA-3TCS-hCB2 63R cell line, respectively, followed the protocol described previously. […] The concentration” for “The concentration”
as §2

[3] = target: T1, human CB2; experiment: Real-time BRET CAMYEL cAMP biosensor, forskolin-stimulated HEK-293S cells transfected with human CB2; type: cell-based; conditions: for 2.5 min EC75 concentration (log[compound] M): cAMP assay, calculated from mean EC50 at 2.5 min, Figure S1; for time of peak cAMP response (maximal efficacy): during 20 min stimulation; for cAMP ΔEmax (absolute magnitude percentage decrease from 100%): normalised to V 0% and F 100%
Procedure: (§3) HEK-293S cells (HEK-S; generously provided by Professor David Poyner, Aston Research Centre, RRID:CVCL_A784 [48]) were maintained in T75 flasks (Corning-Costar) with Dulbecco’s Modified Eagle’s Medium high glucose with phenol red, L-glutamine and sodium pyruvate (DMEM; Cytiva SH30243), and 8% foetal bovine serum (FBS; NZ-origin, Moregate Biotech) at 37 °C in a humidified atmosphere containing 5% CO2.
(§4) Poly-D-Lysine (PDL) (Sigma-Aldrich) at 0.05 mg/mL in PBS was incubated in wells of 96-well Solid White Flat Bottom Polystyrene TC-treated Microplate (Corning-Costar) at 37 °C for 1 h, then washed with PBS prior to seeding and transfection. Cells were seeded at 45,000 cells/well in DMEM supplemented with 12% FBS.
(§5) Plasmids encoding human CB2 (HA-3TCS-hCB2 63R pcDNA5/FRT; 28.5 ng per well) or no receptor (pcDNA5/FRT/CAT; 23.5 ng per well; Thermo Fisher Scientific, Waltham, MA, USA), and either His-CAMYEL (in pcDNA3L; 24 ng per well; ATCC MBA-277; previously described in [49]), or a mix of Rluc8-hβ-arrestin2-Sp1 (in pcDNA3; 0.5 ng per well; previously described in [19]) and Mem-linker-Citrine-SH3 (in pcDNA3; 20 ng per well; previously described in [19, 50]) were diluted in DMEM. Diluted DNA was then co-incubated with polyethyleneimine max (PEI max; Polysciences, Warrington, PA, USA) (Total DNA:PEI ratio of 1:7.5 or 1:6.7 for cAMP or β-arrestin-2 experiments, respectively) in DMEM for 1 h at room temperature (~19–21 °C). These transfection mixes were then added to plated cells, resulting in a final concentration of 8% FBS. Plates were incubated for ~48 h before assaying.
(§6) The protocol for measuring levels of cellular cAMP via real-time BRET biosensor (CAMYEL) is adapted from previous publications. In all cAMP experiments, forskolin (Tocris Bioscience, Bristol, UK) was used to stimulate the activation of adenylyl cyclase to raise intracellular cAMP levels. Vehicle (DMSO) was maintained at an equivalent concentration across all conditions. Assays were carried out in technical duplicate. Then, ~48 h post-transfection, plating media was aspirated, and wells were washed with H+B, consisting of HBSS (Life Technologies) and 1 mg/mL BSA (ICPbio). H+B was then added to the wells to initiate a 30 min serum starve at 37 °C. Post-serum starve, coelenterazine h (final concentration 5 μM, NanoLight Technologies, Norman, OK, USA, #301) was added to the wells, and a 5 min pre-reading was conducted using the LUMIstar® Omega luminometer (Rluc and YFP emissions detected at 460 nm and 535 nm, respectively; BMG Labtech, Ortenberg, Germany). Next, forskolin (final concentration 5 μM) was added to all wells (except vehicle-only wells which received DMSO), and plate reading resumed for 5 min. Lastly, CB2 compounds of interest with forskolin, vehicle with forskolin, or vehicle without forskolin, were added to their respective wells, and a final 20 min read was conducted. All compounds and reagents were diluted in H+B prior to addition to the plate. For β-arrestin-2 recruitment assays, an equivalent procedure was followed except no forskolin was included in the assay stimulations.
(§7) BRET ratios were calculated by dividing YFP emissions by Rluc emissions, then for the cAMP assay, normalised to the mean of baseline ratio reads (where only coelenterazine h was present) to eliminate any variability present prior to drug addiction. An increase in BRET ratio indicated a decrease in cAMP levels or increase in β-arrestin-2 recruitment. Lowess smoothing (GraphPad Prism) was applied to individual technical replicates within an assay. Concentration response curves for the mean of technical replicates (CRC; “log(agonist) vs. response (three parameters)” nonlinear regression curve model, Hill slope constrained to 1) were drawn for the mean ratios over 20 min stimulation or individual time-points.

[4] = target: T1, human CB2; experiment: Real-time BRET β-arrestin-2 plasma membrane translocation, HEK-293S cells transfected with human CB2; type: cell-based; conditions: for β-arrestin-2 translocation ΔEmax (% increase above V): normalised to vehicle 100%
Procedure: as §3, §4, §5, §6, §7

[5] = target: CB2; design: method as in PMID 22444677; conditions: error not shown; cited from earlier work
[6] = test system: CB2; design: method as in PMID 22444677; conditions: error not shown; cited from earlier work; remark: listed apart in the source
[7] = design: method as in PMID 22444677, PMID 25721168; conditions: cited from earlier work
[8] = test system: rodents; design: method as in PMID 22444677, PMID 25721168; conditions: cited from earlier work
[9] = test system: atopic dermatitis; design: method as in PMID 22444677, PMID 25721168; conditions: informally reported; cited from earlier work
[10] = test system: CB2; design: method as in PMID 31024316; conditions: cited from earlier work
[11] = mean over 20 min stimulation, 5 μM forskolin

T1 sequence (P34972 whole entry Q63R): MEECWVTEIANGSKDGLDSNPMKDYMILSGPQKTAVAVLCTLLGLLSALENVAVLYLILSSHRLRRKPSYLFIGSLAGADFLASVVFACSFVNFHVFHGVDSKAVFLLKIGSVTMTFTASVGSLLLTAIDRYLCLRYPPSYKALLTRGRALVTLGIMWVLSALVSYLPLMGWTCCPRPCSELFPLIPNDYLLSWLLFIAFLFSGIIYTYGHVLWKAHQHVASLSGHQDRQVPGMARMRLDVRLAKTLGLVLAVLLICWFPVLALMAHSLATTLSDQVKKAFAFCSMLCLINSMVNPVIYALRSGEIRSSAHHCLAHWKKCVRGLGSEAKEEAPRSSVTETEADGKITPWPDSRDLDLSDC
T2 sequence (P21554 whole entry): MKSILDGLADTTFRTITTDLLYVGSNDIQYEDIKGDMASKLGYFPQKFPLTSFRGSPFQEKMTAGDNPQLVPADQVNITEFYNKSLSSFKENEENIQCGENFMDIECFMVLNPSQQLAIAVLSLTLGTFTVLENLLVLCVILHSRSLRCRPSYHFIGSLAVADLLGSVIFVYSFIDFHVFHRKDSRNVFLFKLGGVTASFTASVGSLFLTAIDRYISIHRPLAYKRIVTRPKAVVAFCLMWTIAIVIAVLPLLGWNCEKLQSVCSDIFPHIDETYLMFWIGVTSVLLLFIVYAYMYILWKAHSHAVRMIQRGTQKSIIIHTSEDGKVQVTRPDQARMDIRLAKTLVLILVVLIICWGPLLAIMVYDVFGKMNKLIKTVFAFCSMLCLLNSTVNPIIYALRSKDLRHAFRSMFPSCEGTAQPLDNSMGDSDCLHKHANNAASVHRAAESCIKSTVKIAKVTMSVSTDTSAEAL

| SMILES | Ki [1] | CB2/CB1 Selectivity [1] | displacement of [3H]-CP55,940 from CB2 [1] | Ki [2] | EC50 [3] | 2.5 min EC75 concentration (log[compound] M) [3] | time of peak cAMP response (maximal efficacy) ([3]; 5 μM forskolin) | cAMP ΔEmax (absolute magnitude percentage decrease from 100%) [3, 11] | EC50 [4] | β-arrestin-2 translocation ΔEmax (% increase above V) ([4]; mean over 20 min stimulation) | decrease in cAMP pEC50 in comparison with CP55,940 ([3]; mean over 20 min stimulation) | other results |
| --- | --- | --- | --- | --- | --- | --- | --- | --- | --- | --- | --- | --- |
| CCc1c(C)cc(C(=O)NC2(C(=O)NCCOCCOCCO)CCCCC2)c(=O)n1Cc1ccc(F)cc1 [UOSS75] | 148 nM | ~100 | fully displaced | ~15100 nM | 10 nM | -7.6 log M | 2.5 min | 31.4 ± 3.9% | 100 nM | 8.5 ± 0.7% |  |  |
| O=C(N[C@H]1CC[C@@H](O)CC1)c1cc2cccnc2n(CCN2CCOCC2)c1=O [UOMM18] | 724 nM | >126 |  | > 100000 nM | 63.1 nM | -7.1 log M | 2.5 min | 28.0 ± 2.4% | 126 nM | 7.3 ± 0.6% | ~ 0.8 log units | CB2 affinity lower than pKd of CP55,940 ([1]; p < 0.0001): ~ 2.5 log units; displacement of [3H]-CP55,940 at CB1 ([2]; highest applied concentration 31.6 µM): did not detectably displace; agonist type for β-arrestin-2 translocation ([4]; relative to CP55,940): partial agonist |
| CCCCCCC(C)(C)c1ccc([C@@H]2C[C@H](O)CC[C@H]2CCCO)c(O)c1 [CP55,940, reference compound] |  |  |  |  |  | -7.3 log M | ≤ 2.5 min | 35.1% ± 3.5% |  | 17.6% ± 0.8% |  | increase of cAMP response potency during the acute 5 min period ([3]; not significant vs 2.5 min): ~ 0.5 log units; time to plateau of β-arrestin-2 efficacy ([4]; 20 min stimulation): approximately 5 min; overall increase of β-arrestin-2 response potency during the stimulation ([4]; 20 min stimulation, vs 1.5 min): ~ 0.7 log units |
| CCc1c(C)cc(C(=O)NC2(C(=O)O)CCCCC2)c(=O)n1Cc1ccc(F)cc1 [UOSS77, reference compound] |  | ~80 | fully displaced |  |  | -7.6 log M | 2.5 min | 33.8 ± 5.5% |  | 11.1 ± 0.7% |  | Ki ([1]; 0.75 nM [3H]-CP55,940, mean (SEM), read-out: CB2 pKi (±SEM) (converted)): 186 nM; Ki ([2]; 0.75 nM [3H]-CP55,940, estimates, incomplete displacement at maximum concentration, read-out: CB1 pKi (±SEM) (converted)): ~15800 nM; EC50 ([3]; mean over 20 min stimulation, 5 μM forskolin, mean ± SEM, read-out: cAMP pEC50 (converted)): 12.6 nM; EC50 ([4]; mean over 20 min stimulation, mean ± SEM, read-out: β-arrestin-2 translocation pEC50 (converted)): 126 nM; CB2 pKi [5]: 7.4; agonism pEC50 (cAMP) [6]: 7.6; oral bioavailability [7]: orally bioavailable; anti-pruritic activity in rodents [8]: shown promise as an anti-pruritic agent; efficacy in Phase 2 clinical trial for atopic dermatitis [9]: ineffective |
| Cc1c(C(=O)c2cccc3ccccc23)c2cccc3c2n1[C@H](CN1CCOCC1)CO3 [WIN55,212-2] |  |  |  |  |  |  |  |  |  |  |  | agonist type for β-arrestin-2 recruitment to CB2 in comparison with CP55,940 [10]: weak partial agonist |
| CCc1c(C)cc(C(=O)NC2(C(=O)NCCOCCOCCOCCO)CCCCC2)c(=O)n1Cc1ccc(F)cc1 [UOSS76] | 813 nM | ~40 | fully displaced | ~29500 nM | 100 nM | -6.9 log M | around 4.5 min | 26.1 ± 3.6% | 631 nM | 7.9 ± 1.2% | ~ 1.0 log units | reduction of CB2 pKi vs. UOSS77 ([1]; p = 0.015): 0.6 log units; decrease of cAMP response potency during the early phase of stimulation ([3]; not significant vs 4.5 min): ~ 0.7 log units; smaller β-arrestin-2 pEC50 than CP55,940 ([4]; mean over 20 min stimulation): ~ 1.0 log units; weaker β-arrestin-2 potency than UOSS77 ([4]; mean over 20 min stimulation): ~ 0.7 log units |
